# Data from PMC9388626, “STUB1 is an intracellular checkpoint for interferon gamma sensing” (Scientific Reports, 2022).
# Assays:
# B16-F10 cells [1] = assay: Flow cytometry, surface MHC-I on CRISPR-edited cells with IFNγ; type: cell-based, murine
# Procedure: Parental, CRISPR-edited or biologic-overexpressed tumour cells were seeded in a cell density of 60,000 (B16-F10), 150,000 (CT26), 100,000 (A375), or 200,000 (A549) per well in 12-well plate filled with 0.8 ml culture media + 10% FBS. After overnight incubation, the culture media were replaced with 1 ml fresh media supplemented with 10% FBS and the designated concentration of the recombinant mouse IFNγ (R&D Systems, #485-MI-100) or recombinant human IFNγ (R&D Systems, #285-IF-100). […]
# Cells were dissociated from the wells with 0.25% trypsin (Gibco, 25200056). After rinsing with 0.5 ml PBS, each sample was stained with the LIVE/DEAD Fixable Aqua dead cell staining solution (Life Technologies, L34957) in 100 µl PBS (1:1000 dilution) for 15 min at 4 °C. After rinsing with 2 × 0.5 ml PBS, each sample was stained with the corresponding primary antibody-dye conjugates diluted in 100 µl Pharmingen stain buffer (BD Biosciences, #554657). After 1 h staining at 4 °C, the cells were rinsed with 2 × 2 ml Pharmingen stain buffer and fixed with 4.21% (w/w) formaldehyde (BD Biosciences, #554655). Cells were analyzed on LSRFortessa X-20 (BD Biosciences) with appropiate fluorescence compensation. The data were analyzed using FlowJo. Cells were gated based on FSC and SSC. Single cells were selected using FSC-A and FSC-H and viable cells were selected using LIVE/DEAD signal. Primary antibodies used were: H-2K^b/H-2D^b (FITC, Biolegend, #114606, 1:50 dilution), HLA-A,B,C (FITC, Biolegend, #311404, 1:100 dilution), mouse IFNGR1 (PE, Invitrogen, #12-1191-82, 1:50 dilution), human IFNGR1 (PE, Miltenyi, #130-125-851, 1:50 dilution), mouse IL1R1 (APC, Biolegend, #113509, 1:20 dilution), mouse IL6R (APC, Biolegend, #115812, 1:20 dilution), mouse IFNAR1 (APC, Biolegend, #127314, 1:20 dilution), and mouse GP130 (PE, Biolegend, #149404, 1:100 dilution).
# B16-F10 cells [2] = assay: Western blot, protein expression after 24 h IFNγ; type: cell-based, murine; settings: Stub1-null B16-F10, 24 h IFNγ
# Procedure: Parental, CRISPR-edited or biologic-overexpressed tumour cells were seeded in a cell density of 60,000 (B16-F10), 150,000 (CT26), 100,000 (A375), or 200,000 (A549) per well in 12-well plate filled with 0.8 ml culture media + 10% FBS. After overnight incubation, the culture media were replaced with 1 ml fresh media supplemented with 10% FBS and the designated concentration of the recombinant mouse IFNγ (R&D Systems, #485-MI-100) or recombinant human IFNγ (R&D Systems, #285-IF-100). The cells were stimulated with the cytokine for 24 h before they were harvested by trypsinization for flow cytometry, western blot, or qPCR analysis (6 h treatment).
# Cells were dissociated from the wells with 0.25% trypsin (Gibco, 25200056). After rinsing with 0.5 ml PBS, the cell pellets were lysed with chilled cell lysis buffer (Cell Signaling Technology, #9803) supplemented with Halt protease inhibitor cocktail (Thermo Scientific, #78430) and phosphatase inhibitor (Sigma-Aldrich, # 4906837001) for 30 min with intermittent vortexing. The lysate was transferred into PCR-strip tubes and sonicated in a chilled water bath sonicator (QSonica). Lysates were clarified by centrifugation at 15,000 rpm at 4 °C for 15 min. Protein concentration was determined using BCA protein assay kit (Pierce, #23225). The lysates were mixed with LDS sample buffer (Life Technologies, NP0008) and sample reducing agent (Life Technologies, NP0009), followed by heating at 70 °C for 10 min to fully denature the protein. […] Membrane blots were pre-stained with total protein stain (LI-COR, # 926-11016) and imaged with Odyssey CLx. […] The blots were finally probed, for overnight at 4 °C, with the appropriate primary antibodies diluted in Intercept (TBS) blocking buffer supplemented with 0.1% (v/v) Tween-20, followed by the secondary antibodies (IRDye 800CW donkey anti-rabbit or anti-mouse IgG, LI-COR) for 1 h at room temperature. Fluorescent signals were imaged and quantified using Odyssey CLx and Image Studio v5.0. Primary antibodies used were: STUB1/CHIP (Cell Signaling Technology, #2080, 1:2000 dilution), STAT1 (Cell Signaling Technology, #14995, 1:10,000 dilution), phospho-Tyr701-STAT1 (Cell Signaling Technology, #9167, 1:2000 dilution), STAT2 (Cell Signaling Technology, #72604, 1:2000 dilution), IRF1 (Cell Signaling Technology, #8478, 1:2000 dilution), PSMB8 (Cell Signaling Technology, #13635, 1:2000 dilution), PSMB9 (Abcam, ab184172, 1:10,000 dilution), and PSMB10 (Abcam, ab183506, 1:10,000 dilution).
substance,measurement,setting,value
IFNγ,IFNγ concentration needed by parental and control cells for response comparable to Stub1-null cells,"B16-F10 cells [1]; B16-F10 (Fig. 1b, e)",at least tenfold higher concentration of IFNγ
same,MHC-I relative abundance compared to parental,"B16-F10 cells [1]; Parental, 0.10 ng ml-1, 24 h",1.00
same,MHC-I relative abundance compared to parental,"B16-F10 cells [1]; Parental, 0.10 ng ml-1, 48 h",1.00
same,Surface MHC-I,B16-F10 cells [1]; Stub1-null vs parental and control B16-F10,"significantly higher, IFNγ-dependent, MHC-I on cell surface"
same,MHC-I relative abundance compared to parental,"B16-F10 cells [1]; clone 1A12 (gStub1 #2), 0.10 ng ml-1, 24 h",3.60
same,MHC-I relative abundance compared to parental,"B16-F10 cells [1]; clone 1A12 (gStub1 #2), 0.10 ng ml-1, 48 h",11.41
same,MHC-I relative abundance compared to parental,"B16-F10 cells [1]; clone 1B9, 0.10 ng ml-1, 24 h",1.36
same,MHC-I relative abundance compared to parental,"B16-F10 cells [1]; clone 1B9, 0.10 ng ml-1, 48 h",1.43
same,MHC-I relative abundance compared to parental,"B16-F10 cells [1]; clone 1D8, 0.10 ng ml-1, 24 h",4.16
same,MHC-I relative abundance compared to parental,"B16-F10 cells [1]; clone 1D8, 0.10 ng ml-1, 48 h",12.70
same,MHC-I relative abundance compared to parental,"B16-F10 cells [1]; clone 1D10 (gStub1 #1), 0.10 ng ml-1, 24 h",4.42
same,MHC-I relative abundance compared to parental,"B16-F10 cells [1]; clone 1D10 (gStub1 #1), 0.10 ng ml-1, 48 h",13.18
same,MHC-I relative abundance compared to parental,"B16-F10 cells [1]; clone 1E6, 0.10 ng ml-1, 24 h",9.22
same,MHC-I relative abundance compared to parental,"B16-F10 cells [1]; clone 1E6, 0.10 ng ml-1, 48 h",24.23
same,MHC-I relative abundance compared to parental,"B16-F10 cells [1]; clone 1G6, 0.10 ng ml-1, 24 h",4.19
same,MHC-I relative abundance compared to parental,"B16-F10 cells [1]; clone 1G6, 0.10 ng ml-1, 48 h",12.85
same,MHC-I relative abundance compared to parental,"B16-F10 cells [1]; clone 1G10, 0.10 ng ml-1, 24 h",1.08
same,MHC-I relative abundance compared to parental,"B16-F10 cells [1]; clone 1G10, 0.10 ng ml-1, 48 h",0.94
same,MHC-I relative abundance compared to parental,"B16-F10 cells [1]; clone 1H7, 0.10 ng ml-1, 24 h",2.27
same,MHC-I relative abundance compared to parental,"B16-F10 cells [1]; clone 1H7, 0.10 ng ml-1, 48 h",5.53
same,MHC-I relative abundance compared to parental,"B16-F10 cells [1]; clone 2B11, 0.10 ng ml-1, 24 h",2.67
same,MHC-I relative abundance compared to parental,"B16-F10 cells [1]; clone 2B11, 0.10 ng ml-1, 48 h",9.24
same,MHC-I relative abundance compared to parental,"B16-F10 cells [1]; clone 2E8 (gControl), 0.10 ng ml-1, 24 h",0.75
same,MHC-I relative abundance compared to parental,"B16-F10 cells [1]; clone 2E8 (gControl), 0.10 ng ml-1, 48 h",0.77
same,MHC-I relative abundance compared to parental,"B16-F10 cells [1]; clone 2E9, 0.10 ng ml-1, 24 h",4.10
same,MHC-I relative abundance compared to parental,"B16-F10 cells [1]; clone 2E9, 0.10 ng ml-1, 48 h",11.55
same,MHC-I relative abundance compared to parental,"B16-F10 cells [1]; clone 2F7, 0.10 ng ml-1, 24 h",1.00
same,MHC-I relative abundance compared to parental,"B16-F10 cells [1]; clone 2F7, 0.10 ng ml-1, 48 h",1.01
same,MHC-I relative abundance compared to parental,"B16-F10 cells [1]; clone 2H3, 0.10 ng ml-1, 24 h",3.56
same,MHC-I relative abundance compared to parental,"B16-F10 cells [1]; clone 2H3, 0.10 ng ml-1, 48 h",12.42
same,"Protein expression of STAT1, STAT2, IRF1",B16-F10 cells [2],"upregulation of STAT1, STAT2, and IRF1 after 24 h stimulation with IFNγ"
